± gives the expanded uncertainty stated by the source.
How the values were obtained:
[1] = Crystal; Adiabatic calorimetry
[2] = Molar enthalpy of transition or fusion; conditions: Crystal; Adiabatic calorimetry

For `CC(=O)N(C)C` [N,N-dimethylethanamide], the Triple point temperature [1] was 254.23 ± 0.18 K and the “Molar enthalpy of transition or fusion” value [2] was 2.44 ± 0.0598 kcal/mol.
